This note sets out measurements from PubChem BioAssay (NCI).

“And” between values parts separate entries of the source, which are not always exact repeats. Identical values can stand only once.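 Five concentrations, 48 hours, 96-well plates. At the GI50, growth is halved. TGI: concentration producing complete growth inhibition.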

Test systems include NCI-H522 lung; UACC-62 melanoma; HCC-2998 colon; SR leukemia; LOX IMVI melanoma; SK-MEL-5 melanoma; CAKI-1 renal; U251 CNS; RPMI-8226 leukemia; MDA-MB-435.
Assay in all cases: NCI-60 cell line screen, 48 h

`CC1NOC(=O)C1N=Nc1cccc(Cl)c1` (configuration not stated): the TGI is 62.8 µM with NCI-H522 lung; greater than 100 µM in the assay with UACC-62 melanoma; greater than 100 µM with HCC-2998 colon; 71.5 µM in the assay on SR leukemia; greater than 100 µM with LOX IMVI melanoma; greater than 100 µM with SK-MEL-5 melanoma. The TGI with CAKI-1 renal is greater than 100 µM; with U251 CNS it was 60.2 µM.

For the molecule `CCn1cc(C(=O)O)c(=O)c2cc(F)c(N3CCN(S(=O)(=O)c4ccc(Cl)cc4Cl)CC3)cc21`, the GI50 is 1.81 µM in the assay with NCI-H522 lung; 1.62 µM in the assay on UACC-62 melanoma; 2.55 µM in the assay with RPMI-8226 leukemia; 1.97 µM in the assay with MDA-MB-435; 2.29 µM in the assay with HCC-2998 colon; 1.48 µM with LOX IMVI melanoma. The GI50 in the assay on SK-MEL-5 melanoma was 1.87 µM; in the assay with CAKI-1 renal, 2.01 µM; in the assay on U251 CNS, 3.3 µM. Further, the TGI in the assay with NCI-H522 lung turned out to be 3.73 µM; in the assay with UACC-62 melanoma it was 3.42 µM; with RPMI-8226 leukemia it was 7.59 µM; in the assay on MDA-MB-435, 4.44 µM; with HCC-2998 colon it was 5.17 µM; in the assay on LOX IMVI melanoma, 3.08 µM. The TGI in the assay with SK-MEL-5 melanoma was found to be 3.93 µM; in the assay with CAKI-1 renal, 4.8 µM; in the assay with U251 CNS it was 14.7 µM.

As to `COC(=O)c1c(C(=O)OC)c(-c2ccccc2)n(-c2ccccc2)c(=O)c1-c1ccccc1`, the TGI with NCI-H522 lung, with UACC-62 melanoma, in the assay with RPMI-8226 leukemia, in the assay with HCC-2998 colon, in the assay with SR leukemia and in the assay on LOX IMVI melanoma was greater than 100 µM in each case. The TGI in the assay with SK-MEL-5 melanoma, in the assay with CAKI-1 renal and with U251 CNS was greater than 100 µM in each case.

For `O=[N+]([O-])c1cccc(/C=N/Nc2ccc3ccccc3n2)c1O`, the TGI amounted to 7.52 µM in the assay with NCI-H522 lung; 20.2 µM in the assay on UACC-62 melanoma; 24.3 µM in the assay on RPMI-8226 leukemia; 20.1 µM in the assay with MDA-MB-435; 21.4 µM in the assay with SR leukemia; 12.7 µM in the assay on LOX IMVI melanoma. Besides, the TGI in the assay on SK-MEL-5 melanoma is 3.45 µM; with CAKI-1 renal, 16.5 µM; in the assay on U251 CNS, 16.4 µM.

On to `OCCCN=C1CCCCC1`, for which the TGI in the assay on NCI-H522 lung, with UACC-62 melanoma, in the assay on RPMI-8226 leukemia, with MDA-MB-435, in the assay on SR leukemia and with LOX IMVI melanoma was greater than 100 µM in each case. The TGI with SK-MEL-5 melanoma, in the assay with CAKI-1 renal and in the assay with U251 CNS was greater than 100 µM throughout.

Take `NC(=NCCCCCCN=C(N)/N=C(\N)Nc1ccc(Cl)cc1)/N=C(\N)Nc1ccc(Cl)cc1`: the GI50 in the assay on UACC-62 melanoma is 1.28 µM; in the assay on MDA-MB-435 it was 1.54 µM; in the assay with HCC-2998 colon, 1.8 µM; in the assay on SR leukemia, 0.945 µM; in the assay with LOX IMVI melanoma it was 0.958 µM; in the assay with SK-MEL-5 melanoma it was 0.908 µM. Also, the GI50 was 1.33 µM with CAKI-1 renal and 1.07 µM in the assay with U251 CNS. Moreover, the TGI was 4.32 µM with UACC-62 melanoma; 5.94 µM with MDA-MB-435; 6.33 µM with HCC-2998 colon; 2.37 µM in the assay with SR leukemia; 2.19 µM in the assay with LOX IMVI melanoma; 1.73 µM in the assay on SK-MEL-5 melanoma. Besides, the TGI in the assay on CAKI-1 renal came to 4.79 µM; in the assay with U251 CNS, 2.77 µM.

On to `COC(=O)CC1(O)C(=O)OCc2c1cc1n(c2=O)Cc2c-1nc1ccccc1c2OC` (configuration not stated), for which the TGI in the assay with NCI-H522 lung was 16.3 µM; in the assay with UACC-62 melanoma, 2.29 µM; in the assay with RPMI-8226 leukemia it was 23.2 µM; in the assay on HCC-2998 colon it was greater than 100 µM; in the assay with SR leukemia, less than 0.0136 µM; with LOX IMVI melanoma, greater than 81.6 µM. The figures for the TGI in the assay on SK-MEL-5 melanoma, in the assay on CAKI-1 renal and in the assay with U251 CNS were 2.74 µM, 4.62 µM and 2.11 µM, respectively.

`CCOc1ccc(NC(=O)CC2SC(=Nc3ccc(C)cc3)NC2=O)cc1` (configuration not stated): the TGI in the assay with NCI-H522 lung, in the assay with UACC-62 melanoma, with SR leukemia, with LOX IMVI melanoma, with SK-MEL-5 melanoma and in the assay on U251 CNS was greater than 100 µM in each case.

As for `CCCCCCCCCCCC/C=C\CC[C@@H](O)[C@H](O)CC[C@H](O)[C@@H]1CC[C@@H](CCCCCCCC2=C[C@H](C)OC2=O)O1`, the TGI was 25.9 µM with NCI-H522 lung; 6.45 µM in the assay with UACC-62 melanoma; 3.87 µM in the assay with RPMI-8226 leukemia; 37.1 µM with HCC-2998 colon; 4.84 µM and 32.3 µM in the assay with LOX IMVI melanoma; 4.11 µM and 4.85 µM in the assay on SK-MEL-5 melanoma. The TGI is 35.7 µM in the assay on CAKI-1 renal and greater than 100 µM in the assay on U251 CNS. Further, the GI50 in the assay with RPMI-8226 leukemia is 1.43 µM; in the assay with MDA-MB-435, 11.4 µM; in the assay with LOX IMVI melanoma, 3.55 µM; with SK-MEL-5 melanoma, 0.0198 µM; in the assay with U251 CNS, 13.7 µM.

As to `C=CCNC(=S)NNC(=O)c1c(C)nc2sccn12`, the TGI with NCI-H522 lung, in the assay on UACC-62 melanoma, in the assay with HCC-2998 colon, in the assay on SR leukemia, in the assay with LOX IMVI melanoma and with SK-MEL-5 melanoma was greater than 100 µM each time. Also, the TGI in the assay on CAKI-1 renal and with U251 CNS was greater than 100 µM each time.

On to `Clc1ccc(C=Nc2ccc(-c3nc4ccccc4[nH]3)cc2)cc1`, for which the GI50 in the assay with NCI-H522 lung, in the assay with UACC-62 melanoma, in the assay with RPMI-8226 leukemia, with MDA-MB-435, with HCC-2998 colon and with LOX IMVI melanoma was greater than 100 µM in each case. In addition, the GI50 with SK-MEL-5 melanoma is 45 µM; in the assay on CAKI-1 renal it was greater than 100 µM; with U251 CNS, 65.1 µM. Besides, the TGI with NCI-H522 lung, in the assay with UACC-62 melanoma, in the assay on RPMI-8226 leukemia, with MDA-MB-435, in the assay with HCC-2998 colon and with LOX IMVI melanoma was greater than 100 µM throughout. For the same molecule, the TGI in the assay on SK-MEL-5 melanoma, with CAKI-1 renal and in the assay on U251 CNS was greater than 100 µM throughout.

On to `Cc1cc(NCCCCCCCNc2cc(C)nc3cc(N)ccc23)c2ccc(N)cc2n1`, for which the TGI was 81.5 µM with NCI-H522 lung; greater than 100 µM with UACC-62 melanoma; greater than 100 µM in the assay with RPMI-8226 leukemia; greater than 100 µM in the assay with HCC-2998 colon; 66.8 µM with SR leukemia; 45.4 µM in the assay with LOX IMVI melanoma. In addition, the TGI in the assay on SK-MEL-5 melanoma, in the assay on CAKI-1 renal and with U251 CNS was greater than 100 µM each time.
